Measured values from patent publication US10322110B2, “Imidazole-based antimicrobial agents” (priority 2014, dated 2019).
Converted amounts (≈) assume the structure as drawn. Where two headings read alike, the source gives them in different places.

Key:
[1] = system: Bacillus subtilis (Marburg strain, ATCC6051); assay: microbe, parasite or virus in culture; type: cell-based; conditions: ATCC6051, read-out: Antibacterial activity BS (Bacillus substilis)
[2] = system: Human hepatocytes (HepaRG cells); assay: human cytotoxicity assay in vitro (CellTiter-Glo), hepatocytes; type: cell-based; conditions: cytotoxicity class
[3] = system: penicillin-, erythromycin- and tetracycline-resistant Streptococcus pneumoniae (ATCC 700677), ARSP; assay: microbe, parasite or virus in culture; type: cell-based
[4] = system: Staphylococcus aureus MRSA (COL); assay: broth microdilution MIC assay, Staphylococcus aureus MRSA (COL); type: cell-based; conditions: for MIC: Staphylococcus aureus, MRSA
[5] = system: Staphylococcus aureus MSSA (Newman); assay: broth microdilution MIC assay, Staphylococcus aureus MSSA (Newman); type: cell-based; conditions: for MIC: Staphylococcus aureus; for Antibacterial activity Staphylococcus aureus (MSSA): MIC100 class score, broth microdilution
[6] = system: Staphylococcus epidermidis (PCI 1200, ATCC12228); assay: broth microdilution MIC assay, Staphylococcus epidermidis; type: cell-based; conditions: ATCC12228, read-out: Antibacterial activity SE (Staphylococcus epidermidis)
[7] = system: Mycobacterium smegmatis (mc(2)155, ATCC700084); assay: broth microdilution MIC assay, Mycobacterium smegmatis; conditions: MIC activity class
[8] = system: Streptococcus pneumoniae (Chester, ATCC49619); assay: broth microdilution MIC assay, Streptococcus pneumoniae; type: cell-based; conditions: MIC100 class score, 24 h
[9] = system: Escherichia coli TolC mutant strain ΔtoIC (K12 b3035 TolC; JW5503); type: cell-based; conditions: MIC activity class
[10] = system: vancomycin-resistant Staphylococcus aureus; assay: broth microdilution MIC assay,  MRSA (COL); type: cell-based; conditions: read-out: MIC for the resistant strain
[11] = ATCC700677, MIC activity class, read-out: Antibacterial activity ARSP (multi-drug resistant-SP)
[12] = read-out: Antibacterial activity MRSA (Staphylococcus aureus MRSA)
[13] = MIC100 class score, broth microdilution, 24 h, read-out: Antibacterial activity Staphylococcus aureus (MRSA)
[14] = 24 h, read-out: Antibacterial activity Staphylococcus aureus (MSSA)
[15] = read-out: Antibacterial activity MSSA (Staphylococcus aureus MSSA)
[16] = ATCC700677, read-out: Antibacterial activity ARSP (multi-drug resistant-SP)
[17] = MIC100 class score, broth microdilution, 24 h

Row | SMILES | MIC [1] [µg/mL] | cytotoxicity cell line H (hepatocytes) [2] | MIC [3, 11] [µg/mL] | MIC [4, 12] [µg/mL] | MIC [4, 13] [µg/mL] | MIC [5, 14] [µg/mL] | MIC [5, 15] [µg/mL] | MIC [6] [µg/mL] | Antibacterial activity MS (Mycobacterium smegmatis) [7] | Antibacterial activity Streptococcus pneumoniae [8] | MIC [3, 16] [µg/mL] | Antibacterial activity Staphylococcus aureus (MSSA) ([5]; 24 h) | Antibacterial activity Staphylococcus aureus (MRSA) [4, 17] | MIC ([4]; 24 h, read-out: Antibacterial activity Staphylococcus aureus (MRSA)) [µg/mL] | Antibacterial activity EC Δ (Escherichia coli ΔtoIC) [9] | MIC [10] [µg/mL]
1 | Cc1nc(-c2ccc(-c3ccc(Cl)cc3Cl)o2)[nH]c1-c1ccccc1 [Compound 1] | 3 to 10 (≈ 8.12 to 27.1 µM) | 2 | < 1 | 1 to 3 (≈ 2.71 to 8.12 µM) | 1 to 3 (≈ 2.71 to 8.12 µM) | 1 to 3 (≈ 2.71 to 8.12 µM) | 1 to 3 (≈ 2.71 to 8.12 µM) | 3 to 10 (≈ 8.12 to 27.1 µM) | 2 (MIC100 of 11-201 μg/ml) |  |  |  |  |  |  | 
2 | Cc1[nH]c(-c2ccc(-c3ccc(Cl)cc3)s2)nc1-c1ccccc1 [Compound 6] | 11 to 201 (≈ 31.4 to 573 µM) |  | 2 to 5 (≈ 5.7 to 14.3 µM) |  |  |  |  |  | 2 (MIC100 of 11-201 μg/ml) | 3 (MIC100 of 2-5 μg/ml) |  |  |  |  |  | 
3 | Cc1[nH]c(-c2ccc(-c3ccccc3F)s2)nc1-c1ccccc1 [Compound 15] |  |  |  |  |  |  |  |  | 2 (MIC100 of 11-201 μg/ml) | 3 (MIC100 of 2-5 μg/ml) | 2 to 5 (≈ 5.98 to 15 µM) |  |  |  |  | 
4 | Cc1nc(-c2ccc(-c3ccc(Cl)cc3Cl)o2)[nH]c1-c1ccc(F)cc1 [Compound 16] | 3 to 10 (≈ 7.75 to 25.8 µM) | 3 | < 1 | 1 to 3 (≈ 2.58 to 7.75 µM) |  |  | 1 to 3 (≈ 2.58 to 7.75 µM) | 3 to 10 (≈ 7.75 to 25.8 µM) |  | 3 (MIC100 of 2-5 μg/ml) |  |  |  |  |  | 
5 | Cc1nc(-c2ccc(-c3ccccc3OC(F)(F)F)o2)[nH]c1-c1ccccc1Cl [Compound 19] |  | 3 |  | 20 to 50 (≈ 47.8 to 119 µM) |  |  | 20 to 50 (≈ 47.8 to 119 µM) |  | 2 (MIC100 of 11-201 μg/ml) |  | 2 to 5 (≈ 4.78 to 11.9 µM) |  |  |  |  | 
6 | Cc1nc(-c2ccc(-c3cccc(OC(F)(F)F)c3)o2)[nH]c1-c1ccccc1 [Compound 34] | 3 to 10 (≈ 7.81 to 26 µM) | 2 | < 1 | 1 to 3 (≈ 2.6 to 7.81 µM) | 1 to 3 (≈ 2.6 to 7.81 µM) | 1 to 3 (≈ 2.6 to 7.81 µM) | 1 to 3 (≈ 2.6 to 7.81 µM) | 20 to 50 (≈ 52 to 130 µM) | 2 (MIC100 of 11-201 μg/ml) |  |  |  |  |  |  | 
7 | Cc1nc(-c2ccc(-c3cccc(OC(F)(F)F)c3)o2)[nH]c1-c1ccc(F)cc1 [Compound 37] | 3 to 10 (≈ 7.46 to 24.9 µM) | 3 | 2 to 5 (≈ 4.97 to 12.4 µM) | 3 to 10 (≈ 7.46 to 24.9 µM) |  |  | 3 to 10 (≈ 7.46 to 24.9 µM) | 20 to 50 (≈ 49.7 to 124 µM) | 2 (MIC100 of 11-201 μg/ml) |  |  | 3 (MIC100 of 3-10 μg/ml) |  |  |  | 
8 | Cc1[nH]c(-c2ccc(-c3ccc(C(F)(F)F)cc3)o2)nc1-c1ccc(Cl)cc1 [Compound 47] | 3 to 10 (≈ 7.45 to 24.8 µM) |  | < 1 | 3 to 10 (≈ 7.45 to 24.8 µM) |  |  | 1 to 3 (≈ 2.48 to 7.45 µM) | 3 to 10 (≈ 7.45 to 24.8 µM) | 3 (MIC100 of 3-10 μg/ml) |  |  |  | 3 (MIC100 of 3-10 μg/ml) |  |  | 
9 | Cc1[nH]c(-c2ccc(-c3ccc(OC(F)(F)F)cc3Cl)o2)nc1-c1ccc(F)cc1 [Compound 51] | 3 to 10 (≈ 6.87 to 22.9 µM) | 3 | 2 to 5 (≈ 4.58 to 11.4 µM) | 20 to 50 (≈ 45.8 to 114 µM) |  |  | 11 to 201 (≈ 25.2 to 460 µM) | 20 to 50 (≈ 45.8 to 114 µM) |  | 3 (MIC100 of 2-5 μg/ml) |  | 2 (MIC100 of 11-201 μg/ml) |  |  |  | 
10 | Cc1[nH]c(-c2ccc(-c3cccc(F)c3C)o2)nc1-c1ccccc1 [Compound 60] | 3 to 10 (≈ 9.03 to 30.1 µM) | 3 | 2 to 5 (≈ 6.02 to 15 µM) | 20 to 50 (≈ 60.2 to 150 µM) |  | 3 to 10 (≈ 9.03 to 30.1 µM) | 3 to 10 (≈ 9.03 to 30.1 µM) | 20 to 50 (≈ 60.2 to 150 µM) | 2 (MIC100 of 11-201 μg/ml) |  |  |  |  | 20 to 50 (≈ 60.2 to 150 µM) |  | 
11 | Cc1ccccc1-c1c[nH]c(-c2ccc(-c3ccccc3OC(F)(F)F)o2)n1 [Compound 66] | 3 to 10 (≈ 7.81 to 26 µM) | 3 | 2 to 5 (≈ 5.2 to 13 µM) | 11 to 201 (≈ 28.6 to 523 µM) |  |  | 3 to 10 (≈ 7.81 to 26 µM) | 20 to 50 (≈ 52 to 130 µM) | 2 (MIC100 of 11-201 μg/ml) |  |  | 3 (MIC100 of 3-10 μg/ml) | 2 (MIC100 of 11-201 μg/ml) |  |  | 
12 | FC(F)(F)Oc1ccccc1-c1ccc(-c2nc(-c3ccc(Cl)cc3Cl)c[nH]2)o1 [Compound 68] | 3 to 10 (≈ 6.83 to 22.8 µM) | 2 | 2 to 5 (≈ 4.55 to 11.4 µM) | 11 to 201 (≈ 25 to 458 µM) |  |  | 11 to 201 (≈ 25 to 458 µM) | 3 to 10 (≈ 6.83 to 22.8 µM) |  | 2 (MIC100 of 6-10 μg/ml) |  | 2 (MIC100 of 11-201 μg/ml) |  |  |  | 
13 | Cc1ccccc1-c1cnc(-c2ccc(-c3ccccc3C(F)(F)F)o2)[nH]1 [Compound 69] | 20 to 50 (≈ 54.3 to 136 µM) | 2 | 2 to 5 (≈ 5.43 to 13.6 µM) |  |  |  | 11 to 201 (≈ 29.9 to 546 µM) |  | 2 (MIC100 of 11-201 μg/ml) |  |  | 3 (MIC100 of 3-10 μg/ml) | 2 (MIC100 of 11-201 μg/ml) |  |  | 
14 | CN(C)Cc1[nH]c(-c2ccc(-c3ccccc3C(F)(F)F)o2)nc1-c1ccccc1 [Compound 70] | 20 to 50 (≈ 48.6 to 122 µM) | 3 |  | 20 to 50 (≈ 48.6 to 122 µM) | 20 to 50 (≈ 48.6 to 122 µM) | 20 to 50 (≈ 48.6 to 122 µM) | 20 to 50 (≈ 48.6 to 122 µM) | 11 to 201 (≈ 26.7 to 489 µM) |  |  |  |  |  |  | 3 (MIC100 of 3-10 μg/ml) | 
15 | CN[C@H](CC(C)C)C(=O)N[C@H]1C(=O)N[C@@H](CC(N)=O)C(=O)N[C@H]2C(=O)N[C@H]3C(=O)N[C@H](C(=O)N[C@H](C(=O)O)c4cc(O)cc(O)c4-c4cc3ccc4O)[C@H](O)c3ccc(c(Cl)c3)Oc3cc2cc(c3O[C@@H]2O[C@H](CO)[C@@H](O)[C@H](O)[C@H]2O[C@H]2C[C@](C)(N)[C@H](O)[C@H](C)O2)Oc2ccc(cc2Cl)[C@H]1O [vancomycin, Vancomycin] |  |  |  |  |  |  |  |  |  |  |  |  |  |  |  | 20 (≈ 13.8 µM)
